The structures appear in SMILES notation.

For test [1], the target named is T1, TRPV1 (Rattus norvegicus, UniProt O35433).
T1 construct: endogenous in cells; host or cells: dissociated nodose ganglion neurons from male Sprague Dawley rats (primary culture, used within 24 h)
Description: Whole-cell patch-clamp current recordings in dissociated nodose ganglion neurons. Format: cell-based. As for the experimental part: (§1) Nodose ganglia were isolated bilaterally from rats and mice under a deep plane of anesthesia (Ketamine, 25 mg/100 g; with Xylazine, 2.5 mg/100 g) using aseptic surgical conditions previously reported (Lancaster and Weinreich, [2001]; Simasko et al., [2002]). Following a midline incision in the neck, the musculature was retracted and blunt dissection techniques were used to dissociate the vagal trunk from the common carotid artery. High-magnification optics (10–100× dissecting scope; Leica Microsystems, Buffalo Grove, IL, USA) were utilized to visualize the nodose ganglia and facilitate complete removal. Once isolated, nodose ganglia were desheathed and digested in Ca^2+/Mg^2+ free Hank’s Balanced Salt Solution containing 1 mg/mL of both Dispase II (Hoffmann La Roche) and Collagenase Type 1A (Sigma Aldrich; 90 min at 37°C in 95% air/5% CO2). Neurons were dispersed by gentle trituration through silicanized pipettes, and then washed in Dulbecco’s Modified Eagle’s Medium (DMEM) supplemented with 10% fetal bovine serum (FBS) and 1% penicillin-streptomycin. Dispersed cells were plated onto poly-lysine coated coverslips and maintained in DMEM+10% FBS (37°C in 95% air/5% CO2). Measurements were made within 24 h of isolation.
Liquid junction potentials were not corrected.
For orientation: Patch clamp records ionic current or voltage across a cell membrane.

The subject of a further test is second-order NTS neurons. The test is described as follows: Spontaneous glutamate release (sEPSCs) onto second-order NTS neurons in horizontal brainstem slices. Type of test: cell-based, rat.
Test [2] concerns the target T1, TRPV1. The test is described as follows: Ratiometric Fura-2 calcium imaging in dissociated nodose ganglion (vagal afferent) neurons. Format: cell-based. Particulars: for effect on AEA-induced increase in cytosolic calcium: AEA 10 μM; for effect on CAP-induced increase in cytosolic calcium: CAP 100 nM. The protocol:
as §1
Intracellular calcium measurements were made with the fluorescent Ca^2+ indicator Fura-2 AM (Molecular Probes, Eugene, OR, USA). Manipulations were made at room temperature in a physiological saline bath (in mM: 140 NaCl, 5 KCl, 2 CaCl2, 1 MgCl2, 6 glucose, 10 HEPES with pH adjusted to 7.4 with NaOH). High K^+ bath (HiK) had 55 mM KCl with an equimolar reduction of NaCl to 90 mM. Neurons on coverslips were loaded with 1 μM Fura-2-AM for 1 h followed by a 15 min wash for de-esterification. COS-7 cells on coverslips were loaded with 1 μM Fura-2-AM for 20 min followed by a 10 min was for de-esterification. Coverslips were mounted into a closed chamber and constantly perfused with physiological bath. Fluorescence was collected using a Nikon Eclipse Ti inverted microscope (Nikon Instruments Inc., Melville, NY, USA) with 40× oil immersion objective, and an Andor Zyla sCMOS digital camera (Andor, South Windsor, CT, USA). For COS-7 cell experiments, TRPV1-GFP+ cells were identified by imaging using an EGFP filter cube (Nikon) prior to Fura-2 imaging. Cells containing Fura-2 were alternatively excited with 340 nm and 380 nm light and fluorescence monitored at 510 nm. Data points were collected with MetaFluor software at 6 s time points. Ratios of fluorescence intensity were converted to Ca^2+ concentrations with a standard curve. Peak calcium responses were quantified, analyzed and compared statistically.
For each experiment, data were collected from three to four nodose ganglion cell cultures or plating of the clonal cells (COS-7). When possible, protocols were designed to be within subject and analyzed using repeated measures ANOVA followed by post hoc comparisons against control. Otherwise unpaired T-tests were used to compare between groups. Parameters of dose-response relationships (EC50, slope, maximum) were determined by sigmoid fit of the data. For antagonist studies (ruthenium red (RR), etc.) all neurons received each treatment and were compared using within subject t-tests. Data are expressed as the average ± SEM. Statistical analysis was performed using SigmaStat software (Systat Software Inc., San Jose, CA, USA).

The subject of test [3] is T2, recombinant rat TRPV1 (TRPV1-GFP).
T2 construct: expressed in transfected cells; host or cells: HEK293 cells (ATCC), transient transfection with lipofectamine 2000
Description: Whole-cell patch-clamp in HEK293 cells transfected with TRPV1-GFP. Type of test: cell-based. Conditions: for current reversal potential: current-voltage plots, n = 9 cells. As for the experimental part:
(§2) To generate TRPV1-GFP, the full-length rat TRPV1 coding region (NCBI accession number NM_031982.1) without stop codon was PCR amplified from nodose ganglion cDNA using the primers below and inserted into the HindIII and EcoRI sites of pEGFP-N1 (Clontech).
Clonal COS-7 cells (ATCC® Manassas, VA, USA) were plated on glass coverslips at a density of 250,000 cells per well of a 6-well tissue culture plate. HEK293 cells (ATCC® Manassas, VA, USA) were plated on glass coverslips at a density of 50,000 cells per well of a 12-well plate. COS-7 and HEK293 cells were maintained in DMEM (Invitrogen), 10% FCS (Atlanta Biologicals), 25 units/ml penicillin and 25 μg/ml streptomycin (Sigma). Approximately 24 h after plating, media was replaced with DMEM, 10% FCS without pen/strep and cells were transiently transfected overnight. COS-7 cells were transfected with 2 μg of TRPV1-GFP and 2.4 μl lipofectamine 2000 (Invitrogen) per well. HEK293 cells were transfected with 1 μg of TRPV1-GFP and 1.2 μl lipofectamine 2000 per well. COS-7 cells were used for calcium imaging and HEK293 cells were used for electrophysiological recordings 1–2 days following transfection.
Whole cell recordings were performed on dissociated nodose ganglion neurons or transfected HEK293 cells using an inverted Olympus IX50 microscope and on NTS neurons contained in horizontal brainstem slices using an upright Nikon FN1 microscope. For HEK293 cell experiments, TRPV1-GFP+ cells were identified visually using 488 nm light illuminations prior to patching. […]
Whole cell currents taken from isolated nodose ganglion cells or transfected HEK 293 cells were normalized to the membrane capacitance to control for variability in cell size. […] For brainstem slice recordings the digitized waveforms of synaptic events were analyzed using an event detection and analysis program (MiniAnalysis, Synaptosoft, Decatur, GA, USA) for all quantal synaptic currents and Clampfit 10 (Molecular Devices) for all ST-stimulated currents. All events >10 pA were counted for frequency values. […]

For test [4], the system named is vagal afferent neurons taken from TRPV1 KO mice. The test is described as follows: Fura-2 calcium imaging in vagal afferent neurons from TRPV1 KO mice. Type of test: cell-based, mouse. Conditions: any concentration tested, n = 15. As for the experimental part: Male Sprague Dawley rats (120–250 g, Simonsen Laboratories) and male TRPV1 knockout mice (TRPV−/−) (20–30 g) (B6.129X1-Trpv1^tm1Jul/J, Jackson Laboratories) were used under procedures approved by the IACUC at Washington State University. Animals were housed under 12 h light/12 h dark conditions and fed standard pellet chow ad libitum. This study was carried out in accordance with the recommendations of the Guide for the Care and Use of Laboratory Animals, as drafted, updated and published by National Research Council. […]
(§3) Intracellular calcium measurements were made with the fluorescent Ca^2+ indicator Fura-2 AM (Molecular Probes, Eugene, OR, USA). […] Fluorescence was collected using a Nikon Eclipse Ti inverted microscope (Nikon Instruments Inc., Melville, NY, USA) with 40× oil immersion objective, and an Andor Zyla sCMOS digital camera (Andor, South Windsor, CT, USA). […] Cells containing Fura-2 were alternatively excited with 340 nm and 380 nm light and fluorescence monitored at 510 nm. […] Ratios of fluorescence intensity were converted to Ca^2+ concentrations with a standard curve. Peak calcium responses were quantified, analyzed and compared statistically.

For test [5], the system named is recombinant rat TRPV1 (TRPV1-GFP). Description: Fura-2 calcium imaging in COS-7 cells transfected with TRPV1-GFP. Type of test: cell-based. Particulars: COS-7 TRPV1-GFP; AEA n = 453 cells, CAP n = 492 cells. The protocol: as §2
Clonal COS-7 cells (ATCC® Manassas, VA, USA) were plated on glass coverslips at a density of 250,000 cells per well of a 6-well tissue culture plate. HEK293 cells (ATCC® Manassas, VA, USA) were plated on glass coverslips at a density of 50,000 cells per well of a 12-well plate. COS-7 and HEK293 cells were maintained in DMEM (Invitrogen), 10% FCS (Atlanta Biologicals), 25 units/ml penicillin and 25 μg/ml streptomycin (Sigma). […]
as §3

The mark [6] stands for this setting: CAP 1 μM bath application, n = 13.

T1 sequence (O35433 whole entry): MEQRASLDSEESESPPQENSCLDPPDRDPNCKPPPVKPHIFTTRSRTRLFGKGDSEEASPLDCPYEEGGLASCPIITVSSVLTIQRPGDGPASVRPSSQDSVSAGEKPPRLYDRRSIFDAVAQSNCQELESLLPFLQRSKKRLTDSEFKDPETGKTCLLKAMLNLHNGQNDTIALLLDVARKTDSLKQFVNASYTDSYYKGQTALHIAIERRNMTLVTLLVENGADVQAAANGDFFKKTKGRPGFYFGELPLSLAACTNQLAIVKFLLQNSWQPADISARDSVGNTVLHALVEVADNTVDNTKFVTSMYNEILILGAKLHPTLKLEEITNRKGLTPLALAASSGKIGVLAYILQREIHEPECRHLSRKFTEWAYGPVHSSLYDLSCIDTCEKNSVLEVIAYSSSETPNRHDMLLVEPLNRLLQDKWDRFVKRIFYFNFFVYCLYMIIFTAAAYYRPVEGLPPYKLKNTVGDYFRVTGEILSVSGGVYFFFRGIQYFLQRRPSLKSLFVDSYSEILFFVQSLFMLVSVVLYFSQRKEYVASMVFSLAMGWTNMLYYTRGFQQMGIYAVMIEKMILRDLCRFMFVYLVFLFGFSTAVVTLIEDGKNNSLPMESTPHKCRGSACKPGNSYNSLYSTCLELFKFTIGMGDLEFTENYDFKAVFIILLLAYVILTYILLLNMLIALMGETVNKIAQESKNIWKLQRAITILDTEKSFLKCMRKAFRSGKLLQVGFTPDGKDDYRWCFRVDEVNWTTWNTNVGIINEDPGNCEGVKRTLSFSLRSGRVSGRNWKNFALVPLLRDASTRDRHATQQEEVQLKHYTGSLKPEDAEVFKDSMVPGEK

`CCCCC/C=C\C/C=C\C/C=C\C/C=C\CCCC(=O)NCCO` [AEA, anandamide]: the EC50 on TRPV1 [1] stood at 9.8 ± 1.07 µM; at TRPV1 [2] (cultured vagal afferent neurons, Fura-2, sigmoid fit, AM251 present for AEA, read-out: EC50 for Calcium (peak cytosolic calcium)), 1.95 ± 0.36 µM. Moreover, at TRPV1 [1] (AEA applied in calcium free bath, then calcium containing bath, n = 8), the “effect of addition of extracellular bath calcium on initial inward current” value is on record as “significantly reduced”. In addition, the “inward current following removal of bath calcium vs standard bath” value on TRPV1 [1] (saturating AEA 30 μM, bath calcium 2 mM vs calcium free, n = 6) is given as “significantly larger”. Also, the “change of any sEPSC parameter (frequency, amplitude, decay-time constant)” value in the test on second-order NTS neurons (AEA 30 μM, n = 16) is reported as “failed to produce a significant change”. Also, on TRPV1 [2] (repeated AEA, 1st response, N = 12), the “calcium response to 1st AEA exposure (time matched control)” value was 113 ± 26. Moreover, on TRPV1 [2] (repeated AEA, 2nd response, N = 12, P = 0.002 vs 1st), the “calcium response to 2nd AEA exposure (time matched control)” value was determined as 43 ± 13. Besides, the current reversal potential in test [3] is 5 mV. In addition, the “current change, smaller than CAP” value in test [3] (physiological bath, Vm = −60 mV) was ~ 52%. Further, the “cytosolic calcium increase in TRPV1 KO neurons” value in test [4] was “failed to produce a calcium increase”. The “peak calcium response, smaller compared to CAP” value in test [5] is listed as ~ 14%.

Turning to `COc1cc(CNC(=O)CCCC/C=C/C(C)C)ccc1O` [CAP, capsaicin], at TRPV1 [1] (saturating CAP 10 μM, bath calcium 2 mM vs calcium free, n = 8), the “effect of removal of bath calcium on average amplitude of induced current” value was “did not change”. For the same compound, in the test with second-order NTS neurons (setting [6]), the “change of sEPSC event amplitude or decay kinetics” value is “no significant changes” and the “change of spontaneous glutamate release (sEPSC frequency)” value is given as “dramatic increase”. Also, in test [3], the current reversal potential is reported as 5 mV.

In the case of `N.N.N.N.N.N.N.N.N.N.N.N.N.N.[Cl-].[Cl-].[Cl-].[Cl-].[Cl-].[Cl-].[O-2].[O-2].[Ru+3].[Ru+3].[Ru+4]` [RR, ruthenium red], at TRPV1 [2] (RR 1 μM pretreatment), the “effect on AEA-induced increase in cytosolic calcium” value is reported as “eliminated” and the “effect on CAP-induced increase in cytosolic calcium” value is given as “eliminated”.

In the case of `COc1cccc(NC(=O)/C=C/c2ccc(Cl)cc2)c1` [SB366791], on TRPV1 [2] (SB366791 10 μM pretreatment), the “effect on AEA-induced increase in cytosolic calcium” value was “eliminated” and the “effect on CAP-induced increase in cytosolic calcium” value is “eliminated”.

Broadly, the EC50 is the concentration that produces a half-maximal response.

(Values after article PMC5478686, “Direct Anandamide Activation of TRPV1 Produces Divergent Calcium and Current Responses” (Frontiers in Molecular Neuroscience, 2017).)
